Paper PMC3635830 (Biochemistry, 2013)

Biological target: tryptophan 2-monooxygenase (TMO) (Pseudomonas savastanoi, UniProt P06617)
Experiment: X-ray crystal structure, […] Å
Conditions: FAD-binding domain; IAM also bound

Sequence of tryptophan 2-monooxygenase (TMO) (P06617 whole entry): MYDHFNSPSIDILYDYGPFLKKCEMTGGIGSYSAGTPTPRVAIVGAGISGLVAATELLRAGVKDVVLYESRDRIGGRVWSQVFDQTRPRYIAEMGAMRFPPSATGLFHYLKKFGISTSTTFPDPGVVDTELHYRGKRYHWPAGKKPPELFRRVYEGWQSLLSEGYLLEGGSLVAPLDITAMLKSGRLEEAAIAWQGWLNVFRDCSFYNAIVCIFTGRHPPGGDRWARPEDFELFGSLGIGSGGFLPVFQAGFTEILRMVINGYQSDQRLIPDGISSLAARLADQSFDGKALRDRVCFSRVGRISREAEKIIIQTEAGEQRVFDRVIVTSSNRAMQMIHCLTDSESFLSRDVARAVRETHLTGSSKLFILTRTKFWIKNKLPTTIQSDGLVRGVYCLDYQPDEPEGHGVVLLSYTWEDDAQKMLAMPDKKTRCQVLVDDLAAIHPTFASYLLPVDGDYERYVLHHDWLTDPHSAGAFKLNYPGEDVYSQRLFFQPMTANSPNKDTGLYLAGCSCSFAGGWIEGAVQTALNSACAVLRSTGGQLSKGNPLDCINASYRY

For `Cc1cc2nc3c(=O)[nH]c(=O)nc-3n(C[C@H](O)[C@H](O)[C@H](O)COP(=O)(O)OP(=O)(O)OC[C@H]3O[C@@H](n4cnc5c(N)ncnc54)[C@H](O)[C@@H]3O)c2cc1C` [FAD], the “X-ray crystal structure, 1.95 Å” value was “The FAD cofactor and the bound indole-3-acetamide occupy a large internal cavity”.
